Patent EP3696177A1, “HETEROCYCLIC COMPOUNDS FOR THE CONTROL OF INVERTEBRATE PESTS” (BASF SE, priority 2019, dated 2020)

Tests used:
Assay type in all cases: in vivo
Aedes aegypti = test: whole plant or invertebrate; details: 48 h, A. aegypti larvae, incubated 2 days, read-out: mortality in comparison with untreated controls (larval mortality)
Method: For evaluating control of yellow fever mosquito (Aedes aegypti) the test unit consisted of 96-well-microtiter plates containing 200µl of tap water per well and 5-15 freshly hatched A. aegypti larvae.
The active compounds were formulated using a solution containing 75% (v/v) water and 25% (v/v) DMSO. Different concentrations of formulated compounds or mixtures were sprayed onto the insect diet at 2.5µl, using a custom built micro atomizer, at two replications.
After application, microtiter plates were incubated at 28 + 1°C, 80 + 5 % RH for 2 days. Larval mortality was then visually assessed.

dichromothrips corbetti = test: Orchid thrips floral-immersion test; details: 72 h, read-out: mortality in comparison with untreated controls
Method: Dichromothrips corbetti adults used for bioassay are obtained from a colony maintained continu-ously under laboratory conditions. For testing purposes, the test compound is diluted in a 1:1 mix-ture of acetone:water (vol:vol), plus Kinetic at a rate of 0.01% v/v.
Thrips potency of each compound is evaluated by using a floral-immersion technique. Each orchid petal is dipped into treatment solution and allowed to dry in Petri dishes. Treated petals are placed into individual re-sealable plastic along with about 20 adult thrips. All test arenas are held under dark condition and a temperature of about 28°C for duration of the assay. The percent mor-tality is recorded 72 hours after treatment.

Anthonomus grandis = test: Boll weevil (Anthonomus grandis) insect diet microtiter plate test; details: 120 h, read-out: mortality in comparison with untreated controls (egg and larval mortality)
Method: For evaluating control of boll weevil (Anthonomus grandis) the test unit consisted of 96-well-microtiter plates containing an insect diet and 5-10 A. grandis eggs.
The compounds were formulated using a solution containing 75% v/v water and 25% v/v DMSO. Different concentrations of formulated compounds were sprayed onto the insect diet at 5 µl, using a custom built micro atomizer, at two replications.
After application, microtiter plates were incubated at about 25 + 1°C and about 75 + 5 % relative humidity for 5 days. Egg and larval mortality was then visually assessed.

Aphis craccivora = test: Cowpea aphid (Aphis craccivora) spray test on potted cowpea plants; details: aphids of various stages, after 72 hours, read-out: mortality in comparison with untreated controls
Method: The active compound is dissolved at the desired concentration in a mixture of 1:1 (vol: vol) distilled water: acetone. Surfactant (Kinetic) is added at a rate of 0.01% (vol/vol). The test solution is prepared at the day of use.
Potted cowpea plants are colonized with approximately 30 - 50 aphids of various stages by man-ually transferring aphid-infested leaf clippings 24 hours before application. Plants are sprayed with the test solutions using a DeVilbiss® hand atomizer at 20- 30 psi (≈ 1.38 to 2.07 bar) after the pest population has been checked. Treated plants are maintained on light carts at about 25- 26°C. Estimate percent mortality is assessed after 72 hours.

Caenorhabditis elegans = Caenorhabditis elegans liquid diet microtiter plate test; details: 96 h, read-out: mortality in comparison with untreated controls (nematode motility (mortality))
Method: For evaluating control of Caenorhabditis elegans through contact or systemic means the test unit consisted of 96-well-microtiter plates containing a liquid diet.
The compounds or mixtures were formulated using a solution containing 75% water and 25% DMSO. Different concentrations of formulated compounds were sprayed into the microtiter plate wells at 5µl per well, using a custom built micro atomizer, at two replications. Mixed instar 60-100 C. elegans were transferred into the micro-titer plate wells. After application, the nematodes were incubated at 18 + 1°C, 70 + 5 % RH for 4 days. Nematode motility (mortality) was then visually assessed.

Heliothis virescens = test: Tobacco budworm (Heliothis virescens) insect diet microtiter plate test; details: 120 h, read-out: mortality in comparison with untreated controls (egg and larval mortality)
Method: For evaluating control of tobacco budworm (Heliothis virescens) the test unit consisted of 96-well-microtiter plates containing an insect diet and 15-25 H. virescens eggs.
The compounds were formulated using a solution containing 75% v/v water and 25% v/v DMSO. Different concentrations of formulated compounds were sprayed onto the insect diet at 10 µl, us-ing a custom built micro atomizer, at two replications.
After application, microtiter plates were incubated at about 28 + 1°C and about 80 + 5 % relative humidity for 5 days. Egg and larval mortality was then visually assessed.

Megoura viciae = test: Vetch aphid (Megoura viciae) broad bean leaf disk test; details: foliar, 120 h, read-out: mortality in comparison with untreated controls
Method: For evaluating control of vetch aphid (Megoura viciae) through contact or systemic means the test unit consisted of 24-well-microtiter plates containing broad bean leaf disks.
The compounds were formulated using a solution containing 75% v/v water and 25% v/v DMSO. Different concentrations of formulated compounds were sprayed onto the leaf disks at 2.5 µl, us-ing a custom built micro atomizer, at two replications.
After application, the leaf disks were air-dried and 5 - 8 adult aphids placed on the leaf disks in-side the microtiter plate wells. The aphids were then allowed to suck on the treated leaf disks and incubated at about 23 + 1°C and about 50 + 5 % relative humidity for 5 days. Aphid mortality and fecundity was then visually assessed.

Myzus persicae = test: Green peach aphid (Myzus persicae) artificial diet/membrane systemic test; details: 72 h, read-out: mortality in comparison with untreated controls
Source text: For evaluating control of green peach aphid (Myzus persicae) through systemic means the test unit consisted of 96-well-microtiter plates containing liquid artificial diet under an artificial membrane.
The compounds were formulated using a solution containing 75% v/v water and 25% v/v DMSO. Different concentrations of formulated compounds were pipetted into the aphid diet, using a cus-tom built pipetter, at two replications.
After application, 5 - 8 adult aphids were placed on the artificial membrane inside the microtiter plate wells. The aphids were then allowed to suck on the treated aphid diet and incubated at about 23 + 1°C and about 50 + 5 % relative humidity for 3 days. Aphid mortality and fecundity was then visually assessed.

Nephotettix virescens = test: Rice green leafhopper (Nephotettix virescens) spray test on rice seedlings; details: adults, after 72 hours, read-out: mortality in comparison with untreated controls
Method: Four to five-week old rice seedlings with cut upper leaf portion are cleaned and washed 24 hours before spraying. The active compounds are formulated in 1:1 acetone:water (vol:vol), and 0.01% vol/vol surfactant (Kinetic) is added. Potted rice seedlings are sprayed with 5-6 ml test solution, air dried, covered with Mylar cages and inoculated with 10 adults. Treated rice plants are kept at about 28-29°C and relative humidity of about 50-60%. Percent mortality is recorded after 72 hours.

Nezara viridula = test: Green soldier stink bug (Nezara viridula) soybean pod spray test; details: 120 h, late 3rd instar N. viridula, after 5 days, read-out: mortality in comparison with untreated controls
Method: The active compound is dissolved at the desired concentration in a mixture of 1:1 (vol:vol) distilled water: aceteone. Surfactant (Kinetic) is added at a rate of 0.01% (vol/vol).The test solution is prepared at the day of use.
Soybean pods are placed in 90 x 50 mm glass Petri dishes lined with moistened filter paper and inoculated with ten late 3rd instar N. viridula. Using a hand atomizer, an approximately 2 ml solution is sprayed into each Petri dish. Treated set-up is kept at about 25-26°C and relative humidity of about 65-70%. Percent mortality is recorded after 5 days.

Plutella xylostella = test: Diamond back moth (Plutella xylostella) cabbage leaf disc dip test; details: foliar, 72 h, read-out: mortality in comparison with untreated controls
Method: The active compound is dissolved at the desired concentration in a mixture of 1:1 (vol:vol) distilled water: acetone. Surfactant (Kinetic) is added at a rate of 0.01% (vol/vol). The test solution is pre-pared at the day of use.
Cabbage leaf discs (60mm in diameter) are dipped in test solution and air-dried. Treated leaves are placed in petri dishes lined with moistened filter paper and inoculated with ten 3rd instar larvae. Mortality is recorded 72 hours after treatment. Feeding damage is also recorded using a scale of 0-100%.

Tetranychus kanzawai = test: Red spider mite (Tetranychus kanzawai) spray test on cowpea beans; details: topical, 72 h, read-out: mortality in comparison with untreated controls
Method: The active compound is dissolved at the desired concentration in a mixture of 1:1 (vol:vol) distilled water: acetone. Add surfactant (Kinetic) is added at a rate of 0.01% (vol/vol). The test solution is prepared at the day of use.
Potted cowpea beans of 4-5 days of age are cleaned with tap water and sprayed with 1-2 ml of the test solution using air driven DeVilbiss® hand atomizer at 20- 30 psi (≈ 1,38 to 2,07 bar). The treated plants are allowed to air dry and afterwards inoculated with 30 or more mites by clipping a cassava leaf section from rearing population. Treated plants are placed inside a holding room at about 25-26°C and about 65-70% relative humidity. Estimate percent mortality is assessed 72 hours after treatment.

CN1C(=O)SC(NC(=O)c2ccc(C3=NOC(c4cc(Cl)cc(Cl)c4)(C(F)(F)F)C3)cc2Cl)C1=O (stereo not drawn) [Compound I-1-1]
> 75%: mortality at 2500 ppm (Aedes aegypti) | mortality at 300 ppm (dichromothrips corbetti) | mortality at 2500 ppm (Anthonomus grandis) | mortality at 300 ppm (Aphis craccivora) | mortality at 2500 ppm (Caenorhabditis elegans) | mortality at 2500 ppm (Heliothis virescens) | mortality at 2500 ppm (Megoura viciae) | mortality at 2500 ppm (Myzus persicae) | mortality at 300 ppm (Nephotettix virescens) | mortality at 300 ppm (Nezara viridula) | mortality at 300 ppm (Plutella xylostella) | mortality at 300 ppm (Tetranychus kanzawai)

CCN1C(=O)SC(NC(=O)c2ccc(C3=NOC(c4cc(Cl)cc(Cl)c4)(C(F)(F)F)C3)cc2Cl)C1=O (stereo not drawn) [Compound I-1-2]
> 75%: mortality at 2500 ppm (Aedes aegypti) | mortality at 300 ppm (dichromothrips corbetti) | mortality at 2500 ppm (Anthonomus grandis) | mortality at 300 ppm (Aphis craccivora) | mortality at 2500 ppm (Caenorhabditis elegans) | mortality at 2500 ppm (Heliothis virescens) | mortality at 2500 ppm (Megoura viciae) | mortality at 2500 ppm (Myzus persicae) | mortality at 300 ppm (Nephotettix virescens) | mortality at 300 ppm (Nezara viridula) | mortality at 300 ppm (Plutella xylostella) | mortality at 300 ppm (Tetranychus kanzawai)

CC(C)N1C(=O)SC(NC(=O)c2ccc(C3=NOC(c4cc(Cl)cc(Cl)c4)(C(F)(F)F)C3)cc2Cl)C1=O (stereo not drawn) [Compound I-1-3]
> 75%: mortality at 2500 ppm (Aedes aegypti) | mortality at 300 ppm (dichromothrips corbetti) | mortality at 2500 ppm (Anthonomus grandis) | mortality at 2500 ppm (Caenorhabditis elegans) | mortality at 2500 ppm (Heliothis virescens) | mortality at 2500 ppm (Megoura viciae) | mortality at 2500 ppm (Myzus persicae) | mortality at 300 ppm (Nezara viridula) | mortality at 300 ppm (Plutella xylostella) | mortality at 300 ppm (Tetranychus kanzawai)

Cc1cc(C2=NOC(c3cc(Cl)cc(Cl)c3)(C(F)(F)F)C2)ccc1C(=O)NC1SC(=O)N(C)C1=O (stereo not drawn) [Compound I-1-4, 4-[5-(3,5-dichlorophenyl)-5-(trifluoromethyl)-4H-isoxazol-3-yl]-2-methyl-N-(3-methyl-2,4-dioxo-thiazolidin-5-yl)benzamide]
> 75%: mortality at 2500 ppm (Aedes aegypti) | mortality at 300 ppm (dichromothrips corbetti) | mortality at 2500 ppm (Anthonomus grandis) | mortality at 2500 ppm (Heliothis virescens) | mortality at 2500 ppm (Megoura viciae) | mortality at 2500 ppm (Myzus persicae) | mortality at 300 ppm (Nephotettix virescens) | mortality at 300 ppm (Nezara viridula) | mortality at 300 ppm (Plutella xylostella) | mortality at 300 ppm (Tetranychus kanzawai)

CCN1C(=O)SC(NC(=O)c2ccc(C3=NOC(c4cc(Cl)cc(Cl)c4)(C(F)(F)F)C3)cc2C)C1=O (stereo not drawn) [Compound I-1-5]
> 75%: mortality at 2500 ppm (Aedes aegypti) | mortality at 300 ppm (dichromothrips corbetti) | mortality at 2500 ppm (Anthonomus grandis) | mortality at 300 ppm (Aphis craccivora) | mortality at 2500 ppm (Heliothis virescens) | mortality at 2500 ppm (Megoura viciae) | mortality at 2500 ppm (Myzus persicae) | mortality at 300 ppm (Nephotettix virescens) | mortality at 300 ppm (Nezara viridula) | mortality at 300 ppm (Plutella xylostella) | mortality at 300 ppm (Tetranychus kanzawai)

Cc1cc(C2=NOC(c3cc(Cl)cc(Cl)c3)(C(F)(F)F)C2)ccc1C(=O)NC1SC(=O)N(C(C)C)C1=O (stereo not drawn) [Compound I-1-6]
> 75%: mortality at 2500 ppm (Aedes aegypti) | mortality at 300 ppm (dichromothrips corbetti) | mortality at 2500 ppm (Anthonomus grandis) | mortality at 300 ppm (Aphis craccivora) | mortality at 2500 ppm (Heliothis virescens) | mortality at 2500 ppm (Megoura viciae) | mortality at 2500 ppm (Myzus persicae) | mortality at 300 ppm (Nephotettix virescens) | mortality at 300 ppm (Nezara viridula) | mortality at 300 ppm (Plutella xylostella)

CN1C(=O)SC(NC(=O)c2ccc(C3=NOC(c4cc(Cl)cc(C(F)(F)F)c4)(C(F)(F)F)C3)c3c2CCC3)C1=O (stereo not drawn) [Compound I-1-8]
> 75%: mortality at 2500 ppm (Aedes aegypti) | mortality at 300 ppm (dichromothrips corbetti) | mortality at 2500 ppm (Anthonomus grandis) | mortality at 2500 ppm (Heliothis virescens) | mortality at 2500 ppm (Megoura viciae) | mortality at 2500 ppm (Myzus persicae) | mortality at 300 ppm (Nephotettix virescens) | mortality at 300 ppm (Nezara viridula) | mortality at 300 ppm (Plutella xylostella) | mortality at 300 ppm (Tetranychus kanzawai)

CN1COC(CNC(=O)c2ccc(C3=NOC(c4cc(Cl)cc(C(F)(F)F)c4)(C(F)(F)F)C3)c3c2CCC3)C1=O (stereo not drawn) [Compound I-3-3]
> 75%: mortality at 2500 ppm (Aedes aegypti) | mortality at 300 ppm (dichromothrips corbetti) | mortality at 2500 ppm (Anthonomus grandis) | mortality at 300 ppm (Aphis craccivora) | mortality at 2500 ppm (Heliothis virescens) | mortality at 2500 ppm (Megoura viciae) | mortality at 2500 ppm (Myzus persicae) | mortality at 300 ppm (Nephotettix virescens) | mortality at 300 ppm (Nezara viridula) | mortality at 300 ppm (Plutella xylostella) | mortality at 300 ppm (Tetranychus kanzawai)

Cc1cc(C2=NOC(c3cc(Cl)cc(Cl)c3)(C(F)(F)F)C2)ccc1C(=O)NCC1OCN(C)C1=O (stereo not drawn) [Compound I-3-11]
> 75%: mortality at 2500 ppm (Aedes aegypti) | mortality at 300 ppm (dichromothrips corbetti) | mortality at 2500 ppm (Anthonomus grandis) | mortality at 300 ppm (Aphis craccivora) | mortality at 2500 ppm (Caenorhabditis elegans) | mortality at 2500 ppm (Heliothis virescens) | mortality at 2500 ppm (Megoura viciae) | mortality at 2500 ppm (Myzus persicae) | mortality at 300 ppm (Plutella xylostella) | mortality at 300 ppm (Tetranychus kanzawai)
